In patent US20130210852A1, “METHODS FOR TREATING INFECTION” (priority 2010, published 2013):
≈ marks a conversion by molar mass, not a printed value. Entries after “also recorded” stand apart in the source; their conditions may differ. Where two headings read alike, the source gives them in different places.

Columns and labels:
HEp-2 cells = experiment: Cytokine arrays of HEp-2 supernatants (Panomics); settings: antibiotic 64 μg/ml, 24 h
S. sonnei on HeLa cells = experiment: S. sonnei adherence and internalization in HeLa cells; type: cell-based, human; settings: HeLa cells pretreated 24 h
[1] = test system: B. anthracis Sterne strain 7702 spores on A549 cells; type: cell-based, human; settings: A549 cells pretreated 24 h, spores 1 h
[2] = test system: EAEC adherence with dialyzed conditioned medium of HEp-2 cells; experiment: Effect of dialyzed HEp-2 supernatants on EAEC adherence; type: cell-based, human; set-up: dose or concentration left out as unconfirmed; settings: HEp-2 treated 24 h, supernatant dialyzed; chambers with or without HEp-2 cells, 3 h
Protocol: HEp-2 cells were cultured in T-175 flasks as described above. […] After 24 h, the medium was collected, loaded into regenerated cellulose dialysis tubing (cutoff, 6 to 8 kDa; Spectra/Por, Rancho Domiguez, Calif.), and dialyzed against 4 liters of PBS changed four times. Each dialysis step lasted at least 6 h and was carried out at 4° C. Dialyzed supernatants were either used immediately in adherence assays or stored at −20° C. until use.
The effect of supernatants on EAEC adherence was determined by mixing EAEC with the dialyzed media from the different antibiotic (or control) treatment groups and adding the bacteria to HEp-2 cells cultured in chambered slides or to chambered slides with no HEp-2 cells. Adherence was visualized microscopically as described above.

S sonnei isolate = experiment: MIC against rifaximin by agar dilution, S sonnei isolate; type: cell-based; settings: Shigella sonnei
Protocol: (§1) Five enterotoxigenic E coli strains, 2 enteroaggregative E coli strains, and 1 S sonnei isolate were included in the study. The isolates had been identified previously from patients with TD acquired in Guadalajara, Mexico, during the summer of 2004 (5). […] The susceptibility of all isolates to rifaximin was determined by agar dilution methodology following the recommendations of the Clinical and Laboratory Standards Institute.

[3] = test system: EAEC strain O42 adherence to HEp-2 cells; type: cell-based, human
C difficile = settings: cited from earlier work
[4] = test system: enteroaggregative E coli strains; experiment: MIC against rifaximin by agar dilution, EAEC isolates; type: cell-based; settings: Escherichia coli; 2 EAEC isolates
Protocol: as §1

[5] = test system: ETEC isolates (ST, LT, CS2/CS3, CS6); type: cell-based, Escherichia coli; on Expression of virulence factor CS2/CS3 in ETEC isolates: key: + = present; − = not present; NV, not viable; on Expression of virulence factor CS6 in ETEC isolates: key: + = present; − = not present; NV, not viable; on Expression of virulence factor LT in ETEC isolates: key: + = present; − = not present; NV, not viable; on Expression of virulence factor ST in ETEC isolates: key: + = present; − = not present; NV, not viable
MMP-9 in EAEC isolates = experiment: Matrix metalloproteinase-9 detection by gelatin zymography, EAEC; type: cell-based, Escherichia coli
Protocol: Matrix Metalloproteinase-9 Detection Expression of matrix metalloproteinase-9 (MMP-9) was analyzed using gelatin zymography in all viable EAEC and S. sonnei isolates growing on MacConkey agar. Isolates were suspended in 1 mL of 0.1 M phosphate buffered saline (pH 7.2) and centrifuged at 1000 g for 10 minutes at 4° C. The supernatant was subjected to gelatin zymography to detect MMP-9 activity using a modified Heussen and Dowdle protocol (9). In summary, the supernatant was diluted 1:2 in a sample buffer (125 mM Tris-HCl, pH 6.8, 20% glycerol, 4% sodium dodecyl sulfate, 0.02% bromphenol blue), and 20 μL was loaded on to a 10% SDS-PAGE gel containing 1 mg/mL gelatin. Prestained standard proteins were used as molecular weight markers. After electrophoresis, gels were rinsed with incubation buffer (2.5% triton X-100, 50 mM Tris-HCl, pH 7.4, 0.02% Brij 35, 10 mM CaCl2, 2 μM ZnCl2) for 1 hour at room temperature to remove SDS. Gels were then incubated overnight at 37° C. and subsequently stained with Coomassie brilliant blue R-250 (Thermo Fisher Scientific, Inc, Rockford, Ill.). […] Matrix metalloproteinase-9 was identified among all gelatinolytic proteins by size.

[6] = rifaximin 8 mg/L, exposure 4 hrs
[7] = rifaximin 8 mg/L, exposure 8 hrs
[8] = rifaximin 8 mg/L, exposure 18 hrs
[9] = rifaximin 8 mg/L, exposure 24 hrs
[10] = rifaximin 32 mg/L, exposure 4 hrs
[11] = rifaximin 32 mg/L, exposure 8 hrs
[12] = rifaximin 32 mg/L, exposure 18 hrs
[13] = rifaximin 64 mg/L, exposure 4 hrs
[14] = rifaximin 64 mg/L, exposure 8 hrs

**Q.** Which “cytokine profile of HEp-2 supernatants” value (HEp-2 cells) does the source give for CO[C@H]1/C=C/O[C@@]2(C)Oc3c(C)c(O)c4c(O)c(c5c(nc6cc(C)ccn65)c4c3C2=O)NC(=O)/C(C)=C\C=C\[C@H](C)[C@H](O)[C@@H](C)[C@@H](O)[C@@H](C)[C@H](OC(C)=O)[C@@H]1C [Rifaximin, (2S,16Z,18E,20S,21S,22R,23R,24R,25S,26S,27S,28E)-5,6,21,23,25 Pentahydroxy-27-methoxy-2,4,11,16,20,22,24,26-octamethyl-2,7-(epoxypentadeca-(1,11,13)trienimino)benzofuro (4,5-e) pyrido(1,2,-a) benzimidazole-1,15(2H)-dione,25-acetate] here?
**A.** contained detectable levels of RANTES and IL-4 only; also recorded: reduced the expression of various proinflammatory cytokines

**Q.** What about the S. sonnei attachment (S. sonnei on HeLa cells) of the same compound?
**A.** no effect

**Q.** And the S. sonnei internalization (S. sonnei on HeLa cells; gentamicin protection)?
**A.** no effect

**Q.** What about the “adherence of B. anthracis” value [1] of the same compound?
**A.** significant reductions

**Q.** And the “internalization of B. anthracis” value ([1]; then gentamicin 100 μg/ml 1 h)?
**A.** significant reductions

**Q.** What about the “EAEC adherence after mixing with dialyzed supernatants of antibiotic-treated HEp-2 cells” value [2] of the same compound?
**A.** adhered poorly

**Q.** And the MIC (S sonnei isolate)?
**A.** 16 µg/mL (≈ 20.4 µM)

**Q.** What about the “EAEC adherence to HEp-2 cells (CFU, % of total bacteria added)” value [3] of the same compound?
**A.** significantly lower; also recorded: significantly reduced; also recorded: reduced EAEC adherence

**Q.** And the “EAEC bacterial counts in the supernatants” value ([3]; HEp-2 cells pretreated 24 h, EAEC 3 h)?
**A.** No differences in bacterial counts

**Q.** What about the “isolates resistant to rifaximin, based on MIC values” (C difficile; 110 C difficile isolates) of the same compound?
**A.** 2.7%

**Q.** What about the “MIC50 against C difficile” value (C difficile; 110 isolates, 1983 to 2004) of the same compound?
**A.** 0.0075 µg/mL (≈ 0.00954 µM)

**Q.** And the “MIC90 against C difficile” value (C difficile; 110 isolates, 1983 to 2004)?
**A.** 0.015 µg/mL (≈ 0.0191 µM)

**Q.** And the MIC [4]?
**A.** 64 µg/mL (≈ 81.4 µM)

**Q.** And the “Expression of all examined virulence factors (ST, LT, CS2/CS3, CS6) by viable ETEC isolates” value (shortened to “Expression … by viable ETEC isolates”) ([5]; 4- and 8-hour exposure to rifaximin 8, 32, and 64 mg/L)?
**A.** expressed all examined virulence factors

**Q.** And the “Expression … by viable ETEC isolates” value ([5]; 18-hour time point, rifaximin 8 mg/L)?
**A.** all virulence factors were expressed

**Q.** What about the “Expression … by viable ETEC isolates” value ([5]; 18-hour time point, rifaximin 32 mg/L) of the same compound?
**A.** no factors were seen

**Q.** And the “Expression … by viable ETEC isolates” value ([5]; 24-hour exposure to rifaximin 8 mg/L)?
**A.** did not express any virulence factors

**Q.** What about the “Expression of virulence factor CS2/CS3 in ETEC isolates” value (“Expression of virulence factor CS2/CS3” below) [5, 6] of the same compound?
**A.** +

**Q.** And the “Expression of virulence factor CS6 in ETEC isolates” value (“Expression of virulence factor CS6” below) [5, 6]?
**A.** +

**Q.** And the “Expression of virulence factor LT in ETEC isolates” value (“Expression of virulence factor LT” below) [5, 6]?
**A.** +

**Q.** And the “Expression of virulence factor ST in ETEC isolates” value [5, 6]?
**A.** +

**Q.** What about the “Expression of virulence factor ST/LT in ETEC isolates” value (shortened to “Expression of virulence factor ST/LT”) [5, 6] of the same compound?
**A.** +

**Q.** What about the “Expression of virulence factor CS2/CS3” value [5, 7] of the same compound?
**A.** +

**Q.** And the “Expression of virulence factor CS6” value [5, 7]?
**A.** +

**Q.** And the “Expression of virulence factor LT” value [5, 7]?
**A.** +

**Q.** What about the “Expression of virulence factor ST in ETEC isolates” value [5, 7] of the same compound?
**A.** +

**Q.** And the “Expression of virulence factor ST/LT” value [5, 7]?
**A.** +

**Q.** And the “Expression of virulence factor CS2/CS3” value [5, 8]?
**A.** +

**Q.** And the “Expression of virulence factor CS6” value [5, 8]?
**A.** +

**Q.** What about the “Expression of virulence factor LT” value [5, 8] of the same compound?
**A.** +

**Q.** And the “Expression of virulence factor ST in ETEC isolates” value [5, 8]?
**A.** +

**Q.** What about the “Expression of virulence factor ST/LT” value [5, 8] of the same compound?
**A.** +

**Q.** And the “Expression of virulence factor CS2/CS3” value [5, 9]?
**A.** −

**Q.** What about the “Expression of virulence factor CS6” value [5, 9] of the same compound?
**A.** −

**Q.** And the “Expression of virulence factor LT” value [5, 9]?
**A.** −

**Q.** What about the “Expression of virulence factor ST in ETEC isolates” value [5, 9] of the same compound?
**A.** −

**Q.** What about the “Expression of virulence factor ST/LT” value [5, 9] of the same compound?
**A.** −

**Q.** What about the “Expression of virulence factor CS2/CS3” value [5, 10] of the same compound?
**A.** +

**Q.** And the “Expression of virulence factor CS6” value [5, 10]?
**A.** +

**Q.** And the “Expression of virulence factor LT” value [5, 10]?
**A.** +

**Q.** And the “Expression of virulence factor ST in ETEC isolates” value [5, 10]?
**A.** +

**Q.** What about the “Expression of virulence factor ST/LT” value [5, 10] of the same compound?
**A.** +

**Q.** What about the “Expression of virulence factor CS2/CS3” value [5, 11] of the same compound?
**A.** +

**Q.** And the “Expression of virulence factor CS6” value [5, 11]?
**A.** +

**Q.** And the “Expression of virulence factor LT” value [5, 11]?
**A.** +

**Q.** What about the “Expression of virulence factor ST in ETEC isolates” value [5, 11] of the same compound?
**A.** +

**Q.** What about the “Expression of virulence factor ST/LT” value [5, 11] of the same compound?
**A.** +

**Q.** And the “Expression of virulence factor CS2/CS3” value [5, 12]?
**A.** −

**Q.** And the “Expression of virulence factor CS6” value [5, 12]?
**A.** −

**Q.** And the “Expression of virulence factor LT” value [5, 12]?
**A.** −

**Q.** And the “Expression of virulence factor ST in ETEC isolates” value [5, 12]?
**A.** −

**Q.** And the “Expression of virulence factor ST/LT” value [5, 12]?
**A.** −

**Q.** And the “Expression of virulence factor CS2/CS3” value [5, 13]?
**A.** +

**Q.** And the “Expression of virulence factor CS6” value [5, 13]?
**A.** +

**Q.** What about the “Expression of virulence factor LT” value [5, 13] of the same compound?
**A.** +

**Q.** What about the “Expression of virulence factor ST in ETEC isolates” value [5, 13] of the same compound?
**A.** +

**Q.** What about the “Expression of virulence factor ST/LT” value [5, 13] of the same compound?
**A.** +

**Q.** What about the “Expression of virulence factor CS2/CS3” value [5, 14] of the same compound?
**A.** +

**Q.** What about the “Expression of virulence factor CS6” value [5, 14] of the same compound?
**A.** +

**Q.** What about the “Expression of virulence factor LT” value [5, 14] of the same compound?
**A.** +

**Q.** And the “Expression of virulence factor ST in ETEC isolates” value [5, 14]?
**A.** +

**Q.** And the “Expression of virulence factor ST/LT” value [5, 14]?
**A.** +

**Q.** And the “MMP-9 expression by EAEC isolates” value (MMP-9 in EAEC isolates; rifaximin 8 mg/L for 4 and 8 hours)?
**A.** expressed MMP-9

**Q.** And the “MMP-9 expression by EAEC isolates” value (MMP-9 in EAEC isolates; rifaximin 8 mg/L for 24 hours)?
**A.** undetectable

**Q.** And the “MMP-9 expression by EAEC isolates” value (MMP-9 in EAEC isolates; rifaximin 8 mg/L, 18-hour time point)?
**A.** one EAEC isolate produced MMP-9, but the other isolate did not

**Q.** What about the “MMP-9 expression by EAEC isolates” value (MMP-9 in EAEC isolates; rifaximin 32 or 64 mg/L for 4, 8, or 18 hours) of the same compound?
**A.** undetectable
